Test results as given in US11046647B2, “Activators of the unfolded protein response” (The Board of Trustees of the University of Illinois, priority 2018, dated 2021).
Values joined by “and” are separate entries in the source; they are usually repeats but may differ in a detail not shown here. Equal entries are not always repeated.

Legend:
[1] = tested on: CaOV-3 ovarian cancer cells; assay: Automated Trypan Blue exclusion cell death assay, Caov-3; format: cell-based, human; conditions: 24 hours
Description: FIG. 33. 105, but not BHPI, kills therapy-resistant ovarian CaOV-3 ovarian cancer cells. (±)-105; Cell death assay: Automated Trypan Blue exclusion. (24 hours post (±)-105)
TRYPAN BLUE: For decades, viable cells have been measured by their ability to exclude the dye Trypan Blue. […] Dead cells, which have lost membrane integrity, take up the dye and are blue. Thus, the percentage of dead cells is the percentage of cells that are Trypan Blue positive out of the total cell population. Quantitative assessment of Trypan Blue uptake uses a cell counter from Fisher. Since the assay is instrument based, there is no observer bias in determining the percentage of Trypan Blue positive cells.
TRYPAN BLUE ASSAYS: Assays are performed on cells in 6 well plates: 300,000 cells are plated in each well of a 6-well plate in 3 ml of medium. After 24 hours, the DMSO vehicle or the indicated compound is added (in 1000th of the vol.) The cells incubated for an additional 24 hours, and then harvested in 0.25 ml of trypsin, followed after harvest by 0.75 ml of medium. The cells are spun down and resuspended in 100-200 μl of medium left that is over the cell pellet (resuspend cells by pipetting up and down a few times). Add 10 μl to 10 μl of trypan blue. Then 10 μl is inserted into the counting slide. […]

[2] = tested on: TYS-Luc (T47DERαY537S-Luc human breast cancer cells) tumors; assay: Orthotopic TYS-Luc mouse xenograft, bioluminescent imaging (BLI); format: in vivo
Description: In a treatment and vehicle-controlled mouse tumor study, human breast cancer cells were engineered to contain both the lethal ERαY537S mutation found in metastatic breast cancer, and the gene for firefly luciferase—when the appropriate chemical is added, the firefly luciferase breaks down the chemical and light is produced. Using a sensitive detector called an imaging system, this allows us to image the tumors inside live mice. This is called bioluminescent imaging, or BLI. Large tumors were allowed to form. Then (−)-105 was injected daily under the skin for three weeks. Using the imaging system, the effect of (−)-105 on the tumors was monitored. At the same time the effect of the vehicle in which (−)-105 was dissolved on tumors was also monitored.
A study was performed to determine what happens after stopping treatment with (−)-105 (Table 2). The study was designed to show whether the micro-tumors would remain dormant, or whether they would regrow. At the end of the three-week treatment, there is residual material that gives off a tiny amount of light which are termed “micro-tumors”. Based on sensitivity of the imaging system, it is believed these micro-tumors contain anywhere from 0˜1,000 cancer cells; the micro-tumors will not be visible to the naked eye. Seeing them requires the powerful imaging system, or a microscope. To test whether these cells are either dead, or no longer dividing and are dormant, the cells two and 4 weeks after they stopped receiving any treatment were imaged. This study tested whether growing cancer cells have been eradicated; this study continues.
In a 3-week study, large breast tumors were present at start of treatment and regressed as shown in the image of FIG. 17. The study was performed using Orthotopic TYS-Luc (injected cells: T47DERαY537-Luc human breast cancer cells), e.g., the most lethal ERα mutation in human in metastatic breast cancer. Tumors were grown in NSG mice. Further details are provided in the Examples.
Experimental Details of the Xenografts: TYS-Luc cells (5,000,000 cells in Matrigel) were injected into the upper mammary fat pad of ovariectomized female NSG (SCID) mice (Jackson labs). After 10 weeks, on day 0, large tumors (size range: 100-600 mm^3) were present. Mice were treated with the vehicle used to dissolve (−)-105, or (−)-105 at 40 mg/kd daily by subcutaneous injection. For bioluminescent imaging (BLI) of the tumors, the mice were anesthetized with isoflurane and Lucerfin, the luciferase substrate, was injected into the mice. Flux, the total member of light photons hitting the detector in one second was measured using an IVIS ([…]). Shown is the flux (in millions of units per second) for the entire area containing each tumor, or an equivalent area when the tumor is tiny or undetectable and the percent change in tumor size at each time a measurement was taken (day 0, day 3, week 1, week 2, week 3). Then treatment was stopped, and another measurement was taken two weeks letter. Note that tumors were also measured with calipers. […] After three days all the (−)-105 tumors has declined to undetectable using calipers.

[3] = tested on: intracellular ATP levels in TYS-Luc cells; assay: Intracellular ATP levels, TYS-Luc cells; format: cell-based, human; conditions: 1,000 nM
Description: TYS-Luc cells were maintained DMSO vehicle (Veh), 1,000 nM BHPI, 1,000 nM (−)-105 with and without 10,000 nM thapsigargin (THG) for the indicated times. ATP levels were determines using a kit and relative ATP levels were from a standard curve. […] (n=3±SEM).

[4] = 2 weeks after treatment stopped, per mouse
[5] = 4 weeks after treatment stopped, per mouse

SMILES: O=C1Nc2c(C(F)(F)F)cccc2C1(c1ccc(O)cc1)c1ccc(OC(F)(F)F)cc1 (racemic) [(±)-105, 3-(4-hydroxyphenyl)-3-(4-(trifluoromethoxy)phenyl)-7-(trifluoromethyl)indolin-2-one]
- killing of Caov-3 cells [1]: kills

SMILES: O=C1Nc2c(C(F)(F)F)cccc2C1(c1ccc(O)cc1)c1ccc(OC(F)(F)F)cc1 (single isomer, unassigned; (-)) [(−)-105, 3-(4-hydroxyphenyl)-3-(4-(trifluoromethoxy)phenyl)-7-(trifluoromethyl)indolin-2-one]
- tumor regrowth after sub-therapeutic dose ([2]; 10 mg/kg oral): tumors did regrow
- Week 2 No Drug % Change in Tumor Flux [2, 4]: −99.95% and −99.84% and −100% (2×) and −99.991%
- Week 2 No Drug Tumor Flux [2, 4]: 0.13 millions of photons/sec and 0.11 millions of photons/sec and 0 millions of photons/sec (2×) and 0.17 millions of photons/sec
- health / toxicity of treated mice ([2]; 3-week treatment): No toxicity
- micro-tumor regrowth after stopping treatment ([2]; 4 weeks after stopping treatment): NO “MICRO-TUMOR” REGROWTH
- Week 4 No Drug % Change in Tumor Flux [2, 5]: −99.98% and −99.88% and −100% and −99.997% and −99.998%
- Week 4 No Drug Tumor Flux [2, 5]: 0.038 millions of photons/sec (2×) and 0.084 millions of photons/sec and 0 millions of photons/sec and 0.048 millions of photons/sec
- Day 3 Flux ([2]; Day 3, per mouse, 40 mg/kg daily, 40 mg/kg): 0.22 millions of photons/s and 0.043 millions of photons/s and 0.40 millions of photons/s and 0.29 millions of photons/s and 0.17 millions of photons/s
- Day 3 % Change in Tumor Flux ([2]; Day 3 vs Day 0, per mouse): −99.99% (2×) and −99.98% (2×) and −99.45%
- Day 7 Flux ([2]; Day 7, per mouse): 0.082 millions of photons/s and 0.041 millions of photons/s and 0.17 millions of photons/s and 0.059 millions of photons/s and 0.18 millions of photons/s
- Day 7 % Change in Tumor Flux ([2]; Day 7 vs Day 0, per mouse): −99.996% (2×) and −99.99% (2×) and −99.77%
- Day 14 Flux ([2]; Day 14, per mouse): 0.246 millions of photons/s and 0.039 millions of photons/s and 0.245 millions of photons/s and 0 millions of photons/s and 0.071 millions of photons/s
- Day 14 % Change in Tumor Flux ([2]; Day 14 vs Day 0, per mouse): −99.99% (2×) and −99.66% and −100% and −99.996%
- Day 21 Flux ([2]; Day 21, per mouse): 0.051 millions of photons/s and 0.16 millions of photons/s and 0.14 millions of photons/s and 0 millions of photons/s and 0.046 millions of photons/s
- Day 21 % Change in Tumor Flux ([2]; Day 21 vs Day 0, per mouse): −99.998% and −99.94% and −99.81% and −100% and −99.997%
- tumor regrowth upon treatment cessation ([2]; after 21 daily doses 40 mg/kg i.p.): tumors did not regrow
- tumor regression by BLI, 4 of the 5 tumors ([2]; after 3 days of treatment): more than 99.9%
- tumor regression by BLI, all five tumors ([2]; after 3 days of treatment): more than 99%
- tumor size using calipers, all 5 mice ([2]; after 3 days of treatment): undetectable
- tumor regression by BLI, 3 of the remaining 4 mice ([2]; after three weeks): more than 99.9%
- effect on Y537S tumors (TYS cell line) ([2]; dose-dependent, i.p. and oral administration): eradicates Y537S tumors
- tolerability ([2]; i.p. and oral administration): tolerated
- Start Recovery Flux ([2]; start of no-drug recovery after 3 weeks treatment, per mouse): 0.16 millions of photons/sec and 0.14 millions of photons/sec and 0 millions of photons/sec and 0.046 millions of photons/sec and 0.051 millions of photons/sec
- Start No Drug: % change in Tumor Flux ([2]; start of no-drug recovery, per mouse): −99.94% and −99.81% and −100% and −99.997%
- microtumor regrowth after stopping treatment ([2]; two weeks after treatment was stopped): had not started growing again
- tumor size using calipers, all 5 tumors ([2]; within seven days): undetectable size
- intracellular ATP levels [3]: reduces intracellular ATP levels
